Converted amounts (≈) assume the structure as drawn. Where two headings read alike, the source gives them in different places.
Assays:
A549 Sentinel Line = assay: Sentinel Line beta-galactosidase reporter assay (A549); assay type: cell-based; details: 40 hrs; for cell death / reporter activity: Sentinel Lines; for reporter activity: FIG. 6; for reporter activity, Gemcitabine-induced stress response: A549 sentinel line, FACS, FIG. 7
Description: The expression level of beta-galactosidase gene in sentinel lines was determined by using a fluorescent substrate fluorescein di-B-D-Galactopyranside (FDG, Marker Gene Tech, #M0250) introduced into cells by hypotonic shock. Cleavage by beta-galactosidase results in the production of free fluorescein, which is unable to cross the plasma membrane and is trapped inside the beta-gal positive cells. Briefly, the cells to be analyzed are trypsinized, and resuspended in PBS containing 2 mM FDG (diluted from a 10 mM stock prepared in 8:1:1 mixture of water: ethanol: DMSO). The cells were then shocked for 4 minutes at 37° C. and transferred to FACS tubes containing cold 1×PBS on ice. Samples were kept on ice for 30 minutes and analyzed by FACS in FL1 channel.
Sentinel Line cells with beta-galactosidase reporter gene were plated at 1×10^5 cells/10 cm dish. […] After 40 hrs, the cells were trypsinized and the expression level of reporter gene was determined by FDG loading.
The reporter activity was measured by FACS analysis.

pancreatic cancer [1] = details: cited from earlier work
cancer of the pancreas [2] = details: previously untreated patients; cited from earlier work
cancer of the pancreas [3] = details: previously treated with 5-FU; cited from earlier work
cancer cell lines = assay: IC50 across several different cancer cell lines; assay type: cell-based; details: called predicted
[4] = cited from earlier work
VEGF = VEGF secretion by tumor cells; assay type: cell-based; details: FIG. 5
[5] = cited from earlier work; remark: listed apart in the source
HIF-1α = HIF-1α induced by L-mimosone under normoxia in Hep3B cells; assay type: cell-based
Description: Abundance of HIF-1α and β-actin was determined by western blotting.

cats = details: cited from earlier work
pancreatic cancer [6] = details: 40 patients; cited from earlier work
[7] = test system: C38 colon adenocarcinoma and PO3 pancreatic ductal adenocarcinoma; details: in vivo; cited from earlier work
[8] = test system: rat mammary tumors induced by DMBA; details: relative to control group; cited from earlier work
pancreatic lesions = details: cited from earlier work
[9] = test system: pancreatic carcinoma cells carrying a K-Ras mutation; details: cited from earlier work
[10] = test system: end-stage pancreatic cancer; details: cited from earlier work
pancreatic cancer [11] = details: cited from earlier work; remark: listed apart in the source
[12] = molecular target: farnesyl protein transferase (FPTase) (Homo sapiens, UniProt P49354+P49356); details: cited from earlier work
pancreatic tumors = details: cited from earlier work
[13] = molecular target: geranylgeranyl protein transferase (GGPTase) (Homo sapiens, UniProt P49354+P53609); details: cited from earlier work
[14] = test system: advanced pancreatic cancer; details: in vivo; cited from earlier work

Chain of farnesyl protein transferase (FPTase) (P49356 whole entry, one chain of several): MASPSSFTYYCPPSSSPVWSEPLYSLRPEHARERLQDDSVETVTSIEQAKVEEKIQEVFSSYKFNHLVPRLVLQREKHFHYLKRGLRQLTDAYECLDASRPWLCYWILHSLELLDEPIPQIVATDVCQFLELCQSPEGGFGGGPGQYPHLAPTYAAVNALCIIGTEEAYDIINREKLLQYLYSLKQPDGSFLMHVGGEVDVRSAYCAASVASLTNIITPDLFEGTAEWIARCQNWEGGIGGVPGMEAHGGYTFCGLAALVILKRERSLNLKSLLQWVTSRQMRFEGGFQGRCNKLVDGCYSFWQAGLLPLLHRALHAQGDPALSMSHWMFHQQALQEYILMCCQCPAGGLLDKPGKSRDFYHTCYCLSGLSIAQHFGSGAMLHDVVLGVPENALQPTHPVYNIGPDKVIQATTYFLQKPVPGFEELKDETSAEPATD
Chain of geranylgeranyl protein transferase (GGPTase) (P53609 whole entry, one chain of several): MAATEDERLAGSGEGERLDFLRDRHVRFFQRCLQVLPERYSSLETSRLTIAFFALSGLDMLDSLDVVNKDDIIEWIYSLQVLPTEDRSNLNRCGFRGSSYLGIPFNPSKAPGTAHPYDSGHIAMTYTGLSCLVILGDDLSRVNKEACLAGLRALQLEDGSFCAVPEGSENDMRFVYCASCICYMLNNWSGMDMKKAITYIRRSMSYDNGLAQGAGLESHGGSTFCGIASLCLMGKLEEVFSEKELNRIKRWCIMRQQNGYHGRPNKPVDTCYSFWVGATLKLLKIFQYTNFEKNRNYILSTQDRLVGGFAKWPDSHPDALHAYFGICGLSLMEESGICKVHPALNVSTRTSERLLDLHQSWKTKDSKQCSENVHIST

O=C1c2c(O)ccc(O)c2C(=O)c2c(NCCNCCO)ccc(NCCNCCO)c21 [mitoxanthrone, mitoxantrone]
cell death (A549 Sentinel Line): increases
reporter activity (A549 Sentinel Line): increases

Nc1ccn([C@@H]2O[C@H](CO)[C@@H](O)C2(F)F)c(=O)n1 [Gemcitabine]
patients with clinical benefit (pancreatic cancer [1]; gemcitabine alone): 20-30%
1-year survival rate (pancreatic cancer [1]; human, in vivo): 18%
reporter activity, Gemcitabine-induced stress response (A549 Sentinel Line): elevated reporter activity
patients alive at 1 year after starting therapy (cancer of the pancreas [2]): 1 in 5
survival of the typical patient (cancer of the pancreas [2]): about 6 months
patients alive at 1 year (cancer of the pancreas [3]): 1 in 25
patients with symptom improvement for at least 1 month (cancer of the pancreas [3]): 1 in 4
survival of the typical patient (cancer of the pancreas [3]): 4 months

C[C@@H]1OC(OC2C=C3CCC4C(CC[C@]5(C)[C@@H](c6ccc(=O)oc6)CC[C@]45O)[C@@]3(C)CC2)[C@H](O)[C@H](O)[C@H]1O (stereo partly drawn) [BNC-4, proscillaridin]
serum levels at the maximum toxic dose (MTD) (mice): about 518 (±121) ng/ml
toxic serum concentration at day 1 (mice): about 518+121 ng/ml
steady state serum level at which anti-tumor activity was observed (xenograft nude mouse model): about 50 ng/mL
IC50 (cancer cell lines): 2 to 8 ng/mL (≈ 0.00377 to 0.0151 µM)
tolerance in cancer patients ([4]; 0.5 mg/d i.v. for 4 d before surgery, 50 patients): well tolerated by all cancer patients
patients taken off treatment for negative side effects ([4]; 1067 patients, up to 3 years): 0.7%
reported cases in which therapy could be resumed ([4]; after a brief hiatus): > 95%
doses producing typical intoxication symptoms ([4]; healthy individuals): above 4 mg p.o./d
secretion of the angiogenesis factor VEGF (VEGF): inhibits
reporter activity, Gemcitabine-induced stress response (A549 Sentinel Line): significantly shift the reporter activity to the left
drug and metabolites excreted by the bile ([5]; in vivo): Greater than 99%
measurable unconjugated drug as share of administered quantity ([5]; oral administration): 7%
time of second, longer-lasting peak ([5]; oral): about 1 hour
time of third peak after dosing ([5]; oral): about 10 hours
HIF-1α accumulation by L-mimosone (HIF-1α; 200 μM L-mimosone, 18 h): eliminated HIF-1α accumulation
HIF-1α accumulation by L-mimosone (HIF-1α; at the low concentration tested): did not appear to have an effect
toxicity, duodenal administration (cats): 1.05 mg/kg

CC(=O)O[C@@]12CO[C@@H]1C[C@H](O)[C@@]1(C)C(=O)[C@H](O)C3=C(C)[C@@H](OC(=O)[C@H](O)[C@@H](NC(=O)OC(C)(C)C)c4ccccc4)C[C@@](O)([C@@H](OC(=O)c4ccccc4)[C@H]21)C3(C)C [docetaxel, Docetaxel]
median duration of response (pancreatic cancer [6]): 5.1 months
partial response (pancreatic cancer [6]): 15%
stable disease (pancreatic cancer [6]): 38%
complete regressions [7]: 80%

CC(C)Cc1ccc(C(C)C(=O)O)cc1 (stereo not drawn) [Ibuprofen]
reduction in incidence of breast tumors [8]: 40%
reduction in multiplicity of breast tumors [8]: 52%

CN(C)C(=N)N=C(N)N [Metformin]
hyperplastic and premalignant lesions (pancreatic lesions; 8.6 in high-fat group): 1.8 lesions per hamster
malignant lesions (pancreatic lesions; drinking water for life, 50% in high-fat group): none were found

C=C(C)[C@H]1CC=C(C)CC1 [Limonene]
growth reduction [9]: approximately 50%

CC[C@@]1(O)C(=O)OCc2c1cc1n(c2=O)Cc2cc3c([N+](=O)[O-])cccc3nc2-1 [Rubitecan, 9-nitrocamptothecin]
nonresponders ([10]; 60 patients): 36.6%
patients who responded favorably ([10]; 60 patients): 31.7%
patients with stabilized disease ([10]; 60 patients): 31.7%
survival ([10]; nonresponders): 6.8 months
median survival ([10]; responders): 18.6 months
median survival ([10]; stabilized disease): 9.7 months

O=c1[nH]cc(F)c(=O)[nH]1 [5-FU, 5-fluorouracil]
response rate (pancreatic cancer [11]): less than 20%
patients alive at 1 year after starting therapy (cancer of the pancreas [2]): 1 in 50

COc1cc2ncnc(Nc3ccc(F)c(Cl)c3)c2cc1OCCCN1CCOCC1 [Iressa]
reporter activity (A549 Sentinel Line): reduction in reporter activity

C=C(C)[C@@H]1CC=C(CO)CC1 [Perillyl alcohol]
inhibition of Ras prenylation [12]: 17%
tumors completely regressed (pancreatic tumors; hamster, in vivo): 16%
growth of pancreatic tumors (pancreatic tumors; versus controls): less than half that of controls
inhibition of RhoA prenylation [13]: 28%

Cn1c(=O)c2c(ncn2C)n(C)c1=O [caffeine]
median duration of survival [14]: 5 months
patients with objective responses [14]: 5.5%

N.N.O=C([O-])C1(C(=O)[O-])CCC1.[Pt+2] [Carboplatin]
cell death (A549 Sentinel Line): increases
reporter activity (A549 Sentinel Line): increases

CC(=O)O[C@H]1C(=O)[C@@]2(C)[C@H]([C@H](OC(=O)c3ccccc3)[C@]3(O)C[C@H](OC(=O)[C@H](O)[C@@H](NC(=O)c4ccccc4)c4ccccc4)C(C)=C1C3(C)C)[C@]1(OC(C)=O)CO[C@@H]1C[C@@H]2O [paclitaxel]
cell death (A549 Sentinel Line): increases
reporter activity (A549 Sentinel Line): increases

C[C@@H]1O[C@@H](O[C@H]2C[C@@H](O)[C@]3(CO)[C@H]4[C@H](O)C[C@]5(C)[C@@H](C6=CC(=O)OC6)CC[C@]5(O)[C@@H]4CC[C@]3(O)C2)[C@H](O)[C@H](O)[C@H]1O [BNC-1, ouabain]
toxic serum concentration at day 1 (mice): about 50+21 ng/ml
therapeutic serum concentration required to achieve >60% TGI (steady state delivery in mice): about 20+15 ng/ml
IC50 (cancer cell lines): 9 to 35 ng/mL (≈ 0.0154 to 0.0599 µM)
secretion of the angiogenesis factor VEGF (VEGF): inhibits
toxicity, duodenal administration (cats): 5.3 mg/kg

Source: US20070105790A1, “Pancreatic cancer treatment using Na+/K+ ATPase inhibitors” (Bionaut Pharmaceuticals, Inc., priority 2004, published 2007)
